From the supplement of paper PMC12137928 come the findings set out here.

Structures are written as SMILES. Where a name gives a salt, the structure may show the parent alone.

The test system of the experiment is HCT116. Particulars: 72 h. In a few lines: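 HCT116 cells went into 1536-well plates at 250 per well. CellTiter-Glo luminescence was expressed relative to vehicle (0%) and positive control (-100%) and then pattern-corrected. Both IC50 and maximal efficacy were taken from four-parameter Hill fits.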

`CCCC(=O)O[C@]1(C(=O)COC(=O)CC)[C@@H](C)C[C@H]2[C@@H]3CCC4=CC(=O)C=C[C@]4(C)[C@@]3(F)[C@@H](O)C[C@@]21C` [Betamethasone butyrate propionate]: the IC50 cell viability is greater than 45.8 µM (ICRF193 0 nM) and greater than 45.8 µM (ICRF193 200 nM).
On to `CCCCC(=O)O[C@]1(C(=O)CO)[C@@H](C)C[C@H]2[C@@H]3CCC4=CC(=O)C=C[C@]4(C)[C@@]3(F)[C@@H](O)C[C@@]21C` [Betamethasone valerate], for which the IC50 cell viability by setting is: (ICRF193 0 nM) greater than 45.8 µM; (ICRF193 200 nM) greater than 45.8 µM.
As for `O=C(O)CCNC(=O)c1ccccc1` [Betamipron], the IC50 cell viability is, setting by setting: (ICRF193 0 nM) greater than 45.8 µM; (ICRF193 200 nM) greater than 45.8 µM.
Turning to `CC(C[N+](C)(C)C)OC(N)=O` (centres undefined) [Bethanechol chloride], the IC50 cell viability by setting is: (ICRF193 0 nM) greater than 45.8 µM; (ICRF193 200 nM) greater than 45.8 µM.
Take `C/N=C(\NC)NCc1ccccc1` [Bethanidine sulfate (2:1)]: the IC50 cell viability runs as follows: (ICRF193 0 nM) greater than 45.8 µM; (ICRF193 200 nM) greater than 45.8 µM.
Consider `O=C(O)CNC(=O)CNC(=O)CNC(=O)CSC(=O)c1ccccc1` [Betiatide], for which the IC50 cell viability reads like this: (ICRF193 0 nM) greater than 45.8 µM; (ICRF193 200 nM) greater than 45.8 µM.
Regarding `COc1ccc(NC(=O)c2ccc(C(=N)N(C)C)cc2)c(C(=O)Nc2ccc(Cl)cn2)c1` [Betrixaban], the IC50 cell viability was greater than 45.8 µM (ICRF193 0 nM) and greater than 45.8 µM (ICRF193 200 nM).
Regarding `COc1ccc(CCNCC(O)COc2cccc(C)c2)cc1OC` (centres undefined) [Bevantolol hydrochloride], the IC50 cell viability was greater than 45.8 µM (ICRF193 0 nM) and greater than 45.8 µM (ICRF193 200 nM).
Compound `C[N+]1(C)CCCCC1COC(=O)C(O)(c1ccccc1)c1ccccc1` (centres undefined) [Bevonium metilsulfate] came in with an IC50 cell viability (ICRF193 0 nM) greater than 45.8 µM and an IC50 cell viability (ICRF193 200 nM) greater than 45.8 µM.
With `C=C(c1ccc(C(=O)O)cc1)c1cc2c(cc1C)C(C)(C)CCC2(C)C` [Bexarotene], the IC50 cell viability runs as follows: (ICRF193 0 nM) greater than 45.8 µM; (ICRF193 200 nM) greater than 45.8 µM.
In turn, `CC(C)(Oc1ccc(CCNC(=O)c2ccc(Cl)cc2)cc1)C(=O)O` [Bezafibrate] gave an IC50 cell viability (ICRF193 0 nM) greater than 45.8 µM and an IC50 cell viability (ICRF193 200 nM) greater than 45.8 µM.
`C[C@@H](O)[C@H]1C(=O)N2C(C(=O)[O-])=C(SC3Cn4cnc[n+]4C3)[C@H](C)[C@H]12` (some centres undefined) [Biapenem]: the IC50 cell viability reads like this: (ICRF193 0 nM) greater than 45.8 µM; (ICRF193 200 nM) greater than 45.8 µM.
For the compound `CCOC(=O)[C@H](CS)NCCN[C@@H](CS)C(=O)OCC` [Bicisate dihydrochloride], the IC50 cell viability (ICRF193 0 nM) is greater than 45.8 µM and the IC50 cell viability (ICRF193 200 nM) is greater than 45.8 µM.
For `CCOCCn1c(C2CCN(CCc3ccc(C(C)(C)C(=O)O)cc3)CC2)nc2ccccc21` [Bilastine], the IC50 cell viability is, setting by setting: (ICRF193 0 nM) greater than 45.8 µM; (ICRF193 200 nM) greater than 45.8 µM.
Consider `O=C(COCCOCCOCC(=O)Nc1c(I)cc(I)c(C(=O)O)c1I)Nc1c(I)cc(I)c(C(=O)O)c1I` [Biliscopin], for which the IC50 cell viability (ICRF193 0 nM) is greater than 45.8 µM and the IC50 cell viability (ICRF193 200 nM) is greater than 45.8 µM.
In the case of `CCNC(=O)CCC/C=C\C[C@@H]1[C@@H](/C=C/[C@@H](O)CCc2ccccc2)[C@H](O)C[C@@H]1O` [Bimatoprost], the IC50 cell viability (ICRF193 0 nM) is greater than 45.8 µM and the IC50 cell viability (ICRF193 200 nM) is greater than 45.8 µM.
In turn, `O=C(O)Cc1cccc(-c2cc(CCCCCCc3ccc(O[C@H]4O[C@H](CO)[C@@H](O)[C@H](O)[C@@H]4O)c(-c4cccc(CC(=O)O)c4)c3)ccc2O[C@H]2O[C@H](CO)[C@@H](O)[C@H](O)[C@@H]2O)c1` [Bimosiamose] showed an IC50 cell viability (ICRF193 0 nM) greater than 45.8 µM and an IC50 cell viability (ICRF193 200 nM) greater than 45.8 µM.
On to `O=C(O)CCCC[C@@H]1SC[C@@H]2NC(=O)N[C@@H]21` [Biotin], for which the IC50 cell viability reads like this: (ICRF193 0 nM) greater than 45.8 µM; (ICRF193 200 nM) greater than 45.8 µM.
Take `OC(CCN1CCCCC1)(c1ccccc1)C1CC2C=CC1C2` (centres undefined) [Biperiden]: the IC50 cell viability is greater than 45.8 µM (ICRF193 0 nM) and greater than 45.8 µM (ICRF193 200 nM).
With `C/C(=C(\CCOC(=O)c1ccccc1)SS/C(CCOC(=O)c1ccccc1)=C(/C)N(C=O)Cc1cnc(C)nc1N)N(C=O)Cc1cnc(C)nc1N` [Bisbentiamine], the IC50 cell viability by setting is: (ICRF193 0 nM) greater than 45.8 µM; (ICRF193 200 nM) greater than 45.8 µM.
As for `CC(=C(CCOC(=O)C(C)C)SSC(CCOC(=O)C(C)C)=C(C)N(C=O)Cc1cnc(C)nc1N)N(C=O)Cc1cnc(C)nc1N` [Bisibutiamine], the IC50 cell viability reads like this: (ICRF193 0 nM) greater than 45.8 µM; (ICRF193 200 nM) greater than 45.8 µM.
As for `O.O.O=C(O)c1cc(O)c2c(c1)[O][Bi][O]2` [Bismuth(III) gallate basic hydrate], the IC50 cell viability runs as follows: (ICRF193 0 nM) greater than 45.8 µM; (ICRF193 200 nM) greater than 45.8 µM.
Regarding `CC(C)NCC(O)COc1ccc(COCCOC(C)C)cc1` (centres undefined) [Bisoprolol fumarate], the IC50 cell viability reads like this: (ICRF193 0 nM) greater than 45.8 µM; (ICRF193 200 nM) greater than 45.8 µM.
`Cc1ccc(C(=O)Oc2ccc(C(O)CNC(C)(C)C)cc2OC(=O)c2ccc(C)cc2)cc1` (centres undefined) [Bitolterol]: the IC50 cell viability (ICRF193 0 nM) is greater than 45.8 µM and the IC50 cell viability (ICRF193 200 nM) is greater than 45.8 µM.
Regarding `CCN1CCN(c2cc(-c3ccc(F)cc3)c3c(n2)CCCCCC3)CC1` [Blonanserin], the IC50 cell viability was greater than 45.8 µM (ICRF193 0 nM) and greater than 45.8 µM (ICRF193 200 nM).
As for `CC(C)(C)NC(=O)N[C@H](C(=O)N1C[C@H]2[C@@H]([C@H]1C(=O)NC(CC1CCC1)C(=O)C(N)=O)C2(C)C)C(C)(C)C` (some centres undefined) [Boceprevir], the IC50 cell viability runs as follows: (ICRF193 0 nM) greater than 45.8 µM; (ICRF193 200 nM) greater than 45.8 µM.
On to `CCC(=O)O[C@@H]1C=C2CC[C@@H]3[C@H](CC[C@]4(C)[C@@H](OC(=O)CC)CC[C@@H]34)C2CC1` (some centres undefined) [Bolandiol dipropionate], for which the IC50 cell viability is greater than 45.8 µM (ICRF193 0 nM) and greater than 45.8 µM (ICRF193 200 nM).
